Results taken from ChEMBL document CHEMBL3745645, “Synthesis, in vitro antitumor activity, dihydrofolate reductase inhibition, DNA intercalation and structure-activity relationship studies of 1,3,5-triazine analogues” (Bioorg Med Chem Lett, 2016).
Activity calls are given as the source filed them. The rule behind the calls is not given here.

How the values were obtained:
Format in all cases: functional
[1] = test system: CAKI-1; test: Cytotoxicity against human Caki1 cells at 10 uM after 48 hrs by SRB assay
[2] = Cytotoxicity against human RXF393 cells at 10 uM after 48 hrs by SRB assay; settings: RXF 393, 48 h, read-out: GI
[3] = test system: SN12C; test: Cytotoxicity against human SN12C cells at 10 uM after 48 hrs by SRB assay; settings: read-out: GI
[4] = test system: TK-10; test: Cytotoxicity against human TK10 cells at 10 uM after 48 hrs by SRB assay
[5] = Cytotoxicity against human UO31 cells at 10 uM after 48 hrs by SRB assay; settings: UO-31, 48 h, read-out: GI
[6] = Cytotoxicity against human PC3 cells at 10 uM after 48 hrs by SRB assay; settings: PC-3, 48 h, read-out: GI
[7] = test system: DU-145; test: Cytotoxicity against human DU145 cells at 10 uM after 48 hrs by SRB assay
[8] = test system: MCF7; test: Cytotoxicity against human MCF7 cells at 10 uM after 48 hrs by SRB assay; settings: MCF7, 48 h, read-out: GI
[9] = test system: MDA-MB-231; test: Cytotoxicity against human MDA-MB-231 cells at 10 uM after 48 hrs by SRB assay; settings: MDA-MB-231, 48 h, read-out: GI
[10] = Cytotoxicity against human Hs 578T cells at 10 uM after 48 hrs by SRB assay; settings: read-out: GI
[11] = Cytotoxicity against human BT549 cells at 10 uM after 48 hrs by SRB assay; settings: BT-549, 48 h, read-out: GI
[12] = test system: T47D; test: Cytotoxicity against human T47D cells at 10 uM after 48 hrs by SRB assay; settings: read-out: GI
[13] = test system: MDA-MB-468; test: Cytotoxicity against human MDA-MB-468 cells at 10 uM after 48 hrs by SRB assay; settings: MDA-MB-468, 48 h, read-out: GI
[14] = test system: CCRF-CEM; test: Cytotoxicity against human CCRF-CEM cells at 10 uM after 48 hrs by SRB assay; settings: read-out: GI
[15] = test system: K562; test: Cytotoxicity against human K562 cells at 10 uM after 48 hrs by SRB assay; settings: K562, 48 h, read-out: GI
[16] = Cytotoxicity against human MOLT4 cells at 10 uM after 48 hrs by SRB assay; settings: MOLT-4, 48 h, read-out: GI
[17] = Cytotoxicity against human RPMI8226 cells at 10 uM after 48 hrs by SRB assay; settings: RPMI-8226, 48 h, read-out: GI
[18] = test system: SR; test: Cytotoxicity against human SR cells at 10 uM after 48 hrs by SRB assay; settings: read-out: GI
[19] = test system: A549; test: Cytotoxicity against human A549 cells at 10 uM after 48 hrs by SRB assay; settings: A549, 48 h, read-out: GI
[20] = Cytotoxicity against human HOP62 cells at 10 uM after 48 hrs by SRB assay; settings: HOP-62, 48 h, read-out: GI
[21] = Cytotoxicity against human HOP92 cells at 10 uM after 48 hrs by SRB assay; settings: HOP-92, 48 h, read-out: GI
[22] = test system: NCI-H226; test: Cytotoxicity against human NCI-H226 cells at 10 uM after 48 hrs by SRB assay; settings: NCI-H226, 48 h, read-out: GI
[23] = test system: NCI-H23; test: Cytotoxicity against human NCI-H23 cells at 10 uM after 48 hrs by SRB assay; settings: NCI-H23, 48 h, read-out: GI
[24] = test system: NCI-H322M; test: Cytotoxicity against human NCI-H322M cells at 10 uM after 48 hrs by SRB assay
[25] = test system: NCI-H460; test: Cytotoxicity against human NCI-H460 cells at 10 uM after 48 hrs by SRB assay; settings: NCI-H460, 48 h, read-out: GI
[26] = test system: NCI-H522; test: Cytotoxicity against human NCI-H522 cells at 10 uM after 48 hrs by SRB assay; settings: NCI-H522, 48 h, read-out: GI
[27] = Cytotoxicity against human COLO205 cells at 10 uM after 48 hrs by SRB assay; settings: COLO 205, 48 h, read-out: GI
[28] = test system: HCC 2998; test: Cytotoxicity against human HCC2998 cells at 10 uM after 48 hrs by SRB assay
[29] = Cytotoxicity against human HCT116 cells at 10 uM after 48 hrs by SRB assay; settings: HCT-116, 48 h, read-out: GI
[30] = Cytotoxicity against human HCT15 cells at 10 uM after 48 hrs by SRB assay; settings: HCT-15, 48 h, read-out: GI
[31] = test system: HT-29; test: Cytotoxicity against human HT-29 cells at 10 uM after 48 hrs by SRB assay
[32] = test system: KM12; test: Cytotoxicity against human KM12 cells at 10 uM after 48 hrs by SRB assay; settings: KM12, 48 h, read-out: GI
[33] = Cytotoxicity against human SW620 cells at 10 uM after 48 hrs by SRB assay; settings: SW-620, 48 h, read-out: GI
[34] = test system: SF-268; test: Cytotoxicity against human SF268 cells at 10 uM after 48 hrs by SRB assay
[35] = Cytotoxicity against human SF295 cells at 10 uM after 48 hrs by SRB assay; settings: SF-295, 48 h, read-out: GI
[36] = Cytotoxicity against human SF539 cells at 10 uM after 48 hrs by SRB assay; settings: SF-539, 48 h, read-out: GI
[37] = Cytotoxicity against human SNB19 cells at 10 uM after 48 hrs by SRB assay; settings: SNB-19, 48 h, read-out: GI
[38] = Cytotoxicity against human SNB75 cells at 10 uM after 48 hrs by SRB assay; settings: SNB-75, 48 h, read-out: GI
[39] = test system: U-251; test: Cytotoxicity against human U251 cells at 10 uM after 48 hrs by SRB assay; settings: U-251, 48 h, read-out: GI
[40] = test system: LOX IMVI; test: Cytotoxicity against human LOXIMVI cells at 10 uM after 48 hrs by SRB assay
[41] = test system: Malme-3M; test: Cytotoxicity against human MALME-3M cells at 10 uM after 48 hrs by SRB assay; settings: read-out: GI
[42] = test system: M14; test: Cytotoxicity against human M14 cells at 10 uM after 48 hrs by SRB assay; settings: M14, 48 h, read-out: GI
[43] = test system: MDA-MB-435; test: Cytotoxicity against human MDA-MB-435 cells at 10 uM after 48 hrs by SRB assay; settings: MDA-MB-435, 48 h, read-out: GI
[44] = test system: SK-MEL-28; test: Cytotoxicity against human SK-MEL-28 cells at 10 uM after 48 hrs by SRB assay
[45] = test system: SK-MEL-5; test: Cytotoxicity against human SK-MEL-5 cells at 10 uM after 48 hrs by SRB assay; settings: SK-MEL-5, 48 h, read-out: GI
[46] = test system: UACC-257; test: Cytotoxicity against human UACC257 cells at 10 uM after 48 hrs by SRB assay
[47] = Cytotoxicity against human UACC62 cells at 10 uM after 48 hrs by SRB assay; settings: UACC-62, 48 h, read-out: GI
[48] = test system: IGROV-1; test: Cytotoxicity against human IGROV1 cells at 10 uM after 48 hrs by SRB assay
[49] = Cytotoxicity against human OVCAR3 cells at 10 uM after 48 hrs by SRB assay; settings: OVCAR-3, 48 h, read-out: GI
[50] = test system: OVCAR-4; test: Cytotoxicity against human OVCAR4 cells at 10 uM after 48 hrs by SRB assay
[51] = Cytotoxicity against human OVCAR8 cells at 10 uM after 48 hrs by SRB assay; settings: OVCAR-8, 48 h, read-out: GI
[52] = Cytotoxicity against human NCI-ADR-RES cells at 10 uM after 48 hrs by SRB assay; settings: read-out: GI
[53] = test system: SK-OV-3; test: Cytotoxicity against human SKOV3 cells at 10 uM after 48 hrs by SRB assay
[54] = test system: 786-0; test: Cytotoxicity against human 786-0 cells at 10 uM after 48 hrs by SRB assay; settings: 786-0, 48 h, read-out: GI
[55] = test system: A498; test: Cytotoxicity against human A498 cells at 10 uM after 48 hrs by SRB assay; settings: A498, 48 h, read-out: GI
[56] = test system: ACHN; test: Cytotoxicity against human ACHN cells at 10 uM after 48 hrs by SRB assay; settings: read-out: GI

Cc1nc2ccc(Nc3nc(NCCO)nc(Nc4ccc(F)cc4)n3)cc2n1Cc1ccccc1
growth inhibition (GI) [1]: inactive | inhibition of growth at 10 µM [2]: 26.1% | inhibition of growth at 10 µM [3]: 1.6% | growth inhibition (GI) [4]: inactive | inhibition of growth at 10 µM [5]: 13.2% | inhibition of growth at 10 µM [6]: 0.89% | growth inhibition (GI) [7]: inactive | inhibition of growth at 10 µM [8]: 19.8% | inhibition of growth at 10 µM [9]: 7.95% | inhibition of growth at 10 µM [10]: 8.56% | inhibition of growth at 10 µM [11]: 20.6% | inhibition of growth at 10 µM [12]: 39.3% | inhibition of growth at 10 µM [13]: 23% | inhibition of growth at 10 µM [14]: 25.3% | inhibition of growth at 10 µM [15]: 25.7% | inhibition of growth at 10 µM [16]: 27.5% | inhibition of growth at 10 µM [17]: 33.7% | inhibition of growth at 10 µM [18]: 28.3% | inhibition of growth at 10 µM [19]: 13.8% | inhibition of growth at 10 µM [20]: 0.23% | inhibition of growth at 10 µM [21]: 19.4% | inhibition of growth at 10 µM [22]: 11.1% | inhibition of growth at 10 µM [23]: 6.24% | growth inhibition (GI) [24]: inactive | inhibition of growth at 10 µM [25]: 4.15% | inhibition of growth at 10 µM [26]: 20.4% | inhibition of growth at 10 µM [27]: 6.67% | growth inhibition (GI) [28]: inactive | inhibition of growth at 10 µM [29]: 13.3% | inhibition of growth at 10 µM [30]: 8.36% | growth inhibition (GI) [31]: inactive | inhibition of growth at 10 µM [32]: 7.5% | inhibition of growth at 10 µM [33]: 0.58% | growth inhibition (GI) [34]: inactive | inhibition of growth at 10 µM [35]: 11% | inhibition of growth at 10 µM [36]: 3.59% | inhibition of growth at 10 µM [37]: 2.43% | inhibition of growth at 10 µM [38]: 8.89% | inhibition of growth at 10 µM [39]: 6.96% | growth inhibition (GI) [40]: inactive | inhibition of growth at 10 µM [41]: 6.95% | inhibition of growth at 10 µM [42]: 6.68% | inhibition of growth at 10 µM [43]: 2.54% | growth inhibition (GI) [44]: inactive | inhibition of growth at 10 µM [45]: 26% | growth inhibition (GI) [46]: inactive | inhibition of growth at 10 µM [47]: 6.56% | growth inhibition (GI) [48]: inactive | inhibition of growth at 10 µM [49]: 3.09% | growth inhibition (GI) [50]: inactive | inhibition of growth at 10 µM [51]: 4.04% | inhibition of growth at 10 µM [52]: 18.1% | growth inhibition (GI) [53]: inactive | inhibition of growth at 10 µM [54]: 11.9% | inhibition of growth at 10 µM [55]: 25.3% | inhibition of growth at 10 µM [56]: 4.66%
